Test results: publication PMC4281712, “ATPase-dependent auto-phosphorylation of the open condensin hinge diminishes DNA binding” (Open Biology, 2014)

What was measured:
[1] = target: T1, Cut3–Cut14 (condensin SMC heterodimer; Cut3/SMC4–Cut14/SMC2) (Schizosaccharomyces pombe, UniProt P41003+P41004); test: inhibition of γ-32P labelling, autoradiography; assay type: biochemical; settings: 1 mM nucleotide pre-incubated 5 min; ATP 8 nM hot, 50 nM cold; 30 min, 30 °C
T1 construct: full-length SMC heterodimer co-overproduced in S. pombe; C-terminal tags kept (Cut14-3HA-His6; Cut3 mutants 8Myc)
T1 sequence (P41004 1-1324): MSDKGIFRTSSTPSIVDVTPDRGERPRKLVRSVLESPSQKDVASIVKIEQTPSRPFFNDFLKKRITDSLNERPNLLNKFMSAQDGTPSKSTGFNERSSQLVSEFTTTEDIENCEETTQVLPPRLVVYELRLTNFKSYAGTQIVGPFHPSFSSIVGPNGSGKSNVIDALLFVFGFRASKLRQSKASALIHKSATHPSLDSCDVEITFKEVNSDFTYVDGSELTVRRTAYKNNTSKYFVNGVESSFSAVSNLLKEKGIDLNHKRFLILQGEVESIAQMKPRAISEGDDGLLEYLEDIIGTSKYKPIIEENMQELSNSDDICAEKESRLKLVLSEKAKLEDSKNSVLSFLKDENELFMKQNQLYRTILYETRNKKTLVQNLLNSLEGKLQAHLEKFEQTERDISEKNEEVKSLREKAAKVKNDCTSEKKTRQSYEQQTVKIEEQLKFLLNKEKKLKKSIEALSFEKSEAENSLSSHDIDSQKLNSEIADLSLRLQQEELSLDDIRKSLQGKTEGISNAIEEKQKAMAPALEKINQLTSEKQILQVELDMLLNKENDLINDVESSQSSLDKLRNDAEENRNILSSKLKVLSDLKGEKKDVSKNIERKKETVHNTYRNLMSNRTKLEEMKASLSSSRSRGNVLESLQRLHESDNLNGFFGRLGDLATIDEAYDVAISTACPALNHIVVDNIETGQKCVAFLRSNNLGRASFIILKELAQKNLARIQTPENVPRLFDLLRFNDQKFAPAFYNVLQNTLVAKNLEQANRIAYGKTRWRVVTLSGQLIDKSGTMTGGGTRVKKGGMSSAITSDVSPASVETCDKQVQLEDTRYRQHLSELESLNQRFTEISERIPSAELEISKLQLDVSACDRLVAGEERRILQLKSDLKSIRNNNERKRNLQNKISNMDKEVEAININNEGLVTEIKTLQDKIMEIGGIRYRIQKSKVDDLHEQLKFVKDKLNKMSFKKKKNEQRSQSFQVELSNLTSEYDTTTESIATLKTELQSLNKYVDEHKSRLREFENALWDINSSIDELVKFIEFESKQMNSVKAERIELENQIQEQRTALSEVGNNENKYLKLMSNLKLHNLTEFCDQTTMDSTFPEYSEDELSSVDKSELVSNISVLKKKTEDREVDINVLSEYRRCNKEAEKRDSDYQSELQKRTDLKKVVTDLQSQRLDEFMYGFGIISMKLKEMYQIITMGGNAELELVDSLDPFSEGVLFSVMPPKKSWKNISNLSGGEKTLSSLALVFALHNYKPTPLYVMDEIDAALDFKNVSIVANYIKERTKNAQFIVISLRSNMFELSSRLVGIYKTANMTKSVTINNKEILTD
T1 sequence (P41003 1-1172): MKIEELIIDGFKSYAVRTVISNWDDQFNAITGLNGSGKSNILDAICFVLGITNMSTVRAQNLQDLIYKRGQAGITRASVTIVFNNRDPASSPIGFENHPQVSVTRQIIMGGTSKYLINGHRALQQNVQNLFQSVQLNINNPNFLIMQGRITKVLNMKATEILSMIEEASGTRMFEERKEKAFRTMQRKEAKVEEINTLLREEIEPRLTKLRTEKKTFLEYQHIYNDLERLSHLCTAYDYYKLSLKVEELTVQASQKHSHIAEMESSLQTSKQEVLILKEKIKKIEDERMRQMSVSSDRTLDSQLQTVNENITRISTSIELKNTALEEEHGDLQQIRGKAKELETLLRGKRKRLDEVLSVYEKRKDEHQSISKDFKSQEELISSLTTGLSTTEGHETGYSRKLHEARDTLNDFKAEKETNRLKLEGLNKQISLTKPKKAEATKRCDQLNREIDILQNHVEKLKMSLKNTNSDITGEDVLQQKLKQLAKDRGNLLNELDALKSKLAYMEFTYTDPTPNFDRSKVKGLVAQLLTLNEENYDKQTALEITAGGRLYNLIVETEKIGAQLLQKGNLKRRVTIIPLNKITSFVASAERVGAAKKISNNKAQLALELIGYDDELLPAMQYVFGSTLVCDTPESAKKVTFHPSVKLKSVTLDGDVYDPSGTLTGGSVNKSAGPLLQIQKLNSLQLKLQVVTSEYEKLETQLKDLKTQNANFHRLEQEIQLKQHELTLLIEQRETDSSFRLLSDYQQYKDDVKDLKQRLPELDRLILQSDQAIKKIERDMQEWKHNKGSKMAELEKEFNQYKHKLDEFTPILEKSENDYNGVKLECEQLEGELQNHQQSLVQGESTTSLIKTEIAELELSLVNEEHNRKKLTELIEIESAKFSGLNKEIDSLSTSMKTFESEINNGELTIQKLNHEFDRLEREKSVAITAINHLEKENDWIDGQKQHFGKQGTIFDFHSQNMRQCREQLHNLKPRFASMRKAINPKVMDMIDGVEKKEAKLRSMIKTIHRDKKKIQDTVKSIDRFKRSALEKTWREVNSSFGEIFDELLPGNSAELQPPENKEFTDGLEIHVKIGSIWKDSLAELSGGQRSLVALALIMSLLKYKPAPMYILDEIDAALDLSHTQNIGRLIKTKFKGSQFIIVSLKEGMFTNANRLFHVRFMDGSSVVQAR

[2] = target: T1, Cut3–Cut14 (condensin SMC heterodimer; Cut3/SMC4–Cut14/SMC2); test: thiophosphorylation, PNBM alkylation, anti-thiophosphate ester western blot; assay type: biochemical; settings: covalent thiophosphoryl transfer to Cut3; 10 mM ATPγS

Compound	inhibition of γ-32P labelling, autoradiography [1]	thiophosphorylation, PNBM alkylation, anti-thiophosphate ester western blot [2]
Nc1ncnc2c1ncn2[C@@H]1O[C@H](COP(=O)(O)OP(=O)(O)NP(=O)(O)O)[C@@H](O)[C@H]1O [AMP-PNP]	Some labelling occurred in an excess of AMP-PNP	
Nc1ncnc2c1ncn2[C@@H]1O[C@H](COP(=O)(O)OP(=O)(O)OP(O)(O)=S)[C@@H](O)[C@H]1O [ATPγS]		Antibody against ATPγS detected Cut3 protein in the heterodimer after incubation in the presence of ATPγS
